Laboratory results published in PubChem BioAssay (NCI).
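1) Cells in 96-well plates. 2) Compound, 48 h, 5 concentrations. 3) Linear interpolation between surrounding doses. 4) Unreached endpoint = highest concentration. At the GI50, growth is halved. Definition used: TGI = concentration required for complete inhibition of growth.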

What was measured:
Assay in all cases: growth of human tumour cells (NCI), 48 h
[1] = system: 786-0 renal
[2] = system: A498 renal
[3] = system: A549 NSCLC
[4] = system: ACHN renal
[5] = system: BT-549 breast
[6] = system: CAKI-1 renal
[7] = system: CCRF-CEM leukemia
[8] = system: COLO 205 colon
[9] = system: DU-145 prostate
[10] = system: HCC-2998 colon
[11] = system: HCT-116 colon
[12] = system: HCT-15 colon
[13] = system: HL-60(TB) leukemia
[14] = system: HOP-62 NSCLC
[15] = system: HOP-92 NSCLC
[16] = system: HS 578T breast
[17] = system: HT29 colon
[18] = system: IGROV1 ovarian
[19] = system: K-562 leukemia
[20] = system: KM12 colon
[21] = system: LOX IMVI melanoma
[22] = system: M14 melanoma
[23] = system: MALME-3M melanoma
[24] = system: MCF7 breast
[25] = system: MDA-MB-231 breast
[26] = system: MDA-MB-435
[27] = system: MOLT-4 leukemia
[28] = system: NCI-H226 lung
[29] = system: NCI-H23 lung
[30] = system: NCI-H460 lung
[31] = system: NCI-H522 lung
[32] = system: NCI/ADR-RES ovarian
[33] = system: OVCAR-3 ovarian
[34] = system: OVCAR-4 ovarian
[35] = system: OVCAR-5 ovarian
[36] = system: OVCAR-8 ovarian
[37] = system: RPMI-8226 leukemia
[38] = system: RXF 393 renal
[39] = system: SF-268 CNS
[40] = system: SF-295 CNS
[41] = system: SF-539 CNS
[42] = system: SK-MEL-28 melanoma
[43] = system: SK-MEL-5 melanoma
[44] = system: SK-OV-3 ovarian
[45] = system: SN12C renal
[46] = system: SNB-19 CNS
[47] = system: SNB-75 CNS
[48] = system: SR leukemia
[49] = system: SW-620 colon
[50] = system: T-47D breast
[51] = system: TK-10 renal
[52] = system: U251 CNS
[53] = system: UACC-257 melanoma
[54] = system: UACC-62 melanoma
[55] = system: UO-31 renal
[56] = system: EKVX NSCLC
[57] = system: PC-3 prostate

## COc1cc(/C=C\c2cc(OC)c(OC)c(OC)c2)cc(N/C=C\C(=O)c2ccc(OC(F)(F)F)cc2)c1OC
[1]
  GI50: 4.34 µM
  TGI: > 100 µM
[2]
  GI50: 1.83 µM
  TGI: 7.59 µM
[3]
  GI50: 4.54 µM
  TGI: > 100 µM
[4]
  GI50: 5.56 µM
  TGI: > 100 µM
[5]
  GI50: 5.9 µM
  TGI: > 100 µM
[6]
  GI50: 4.96 µM
  TGI: > 100 µM
[7]
  GI50: 3.55 µM
  TGI: > 100 µM
[8]
  GI50: 2.98 µM
  TGI: 9.37 µM
[9]
  GI50: 4.11 µM
  TGI: > 100 µM
[10]
  GI50: 3.71 µM
  TGI: > 100 µM
[11]
  GI50: 3.58 µM
  TGI: > 100 µM
[12]
  GI50: 3.42 µM
  TGI: > 100 µM
[13]
  GI50: 2.8 µM
  TGI: 8.08 µM
[14]
  GI50: 7.85 µM
  TGI: > 100 µM
[15]
  GI50: 12.6 µM
  TGI: > 100 µM
[16]
  GI50: 6.44 µM
  TGI: > 100 µM
[17]
  GI50: 3.07 µM
  TGI: 16.5 µM
[18]
  GI50: 7.06 µM
  TGI: > 100 µM
[19]
  GI50: 2.93 µM
  TGI: > 100 µM
[20]
  GI50: 3.69 µM
  TGI: > 100 µM
[21]
  GI50: 5.95 µM
  TGI: > 100 µM
[22]
  GI50: 3.46 µM
  TGI: > 100 µM
[23]
  GI50: 14.7 µM
  TGI: > 100 µM
[24]
  GI50: 4.08 µM
  TGI: > 100 µM
[25]
  GI50: 3 µM
  TGI: 14.5 µM
[26]
  GI50: 1.84 µM
  TGI: 5.52 µM
[27]
  GI50: 3.99 µM
  TGI: > 100 µM
[28]
  GI50: 19.9 µM
  TGI: > 100 µM
[29]
  GI50: 4.38 µM
  TGI: > 100 µM
[30]
  GI50: 3.34 µM
  TGI: 36.4 µM
[31]
  GI50: 1.96 µM
  TGI: 6.19 µM
[32]
  GI50: 3.04 µM
  TGI: 9.85 µM
[33]
  GI50: 3.48 µM
  TGI: 10.6 µM
[34]
  GI50: 7.54 µM
  TGI: > 100 µM
[35]
  GI50: 8.2 µM
  TGI: > 100 µM
[36]
  GI50: 4.59 µM
  TGI: > 100 µM
[37]
  GI50: 3.66 µM
  TGI: 19.6 µM
[38]
  GI50: 2.18 µM
  TGI: 7.17 µM
[39]
  GI50: 8.9 µM
  TGI: > 100 µM
[40]
  GI50: 4.12 µM
  TGI: 30.9 µM
[41]
  GI50: 2.21 µM
  TGI: 5.92 µM
[42]
  GI50: 10.4 µM
  TGI: > 100 µM
[43]
  GI50: 3.74 µM
  TGI: > 100 µM
[44]
  GI50: 5.38 µM
  TGI: > 100 µM
[45]
  GI50: 4.85 µM
  TGI: > 100 µM
[46]
  GI50: 4.97 µM
  TGI: > 100 µM
[47]
  GI50: 2.65 µM
  TGI: 24 µM
[48]
  GI50: 2.75 µM
  TGI: 41.1 µM
[49]
  GI50: 4.09 µM
  TGI: > 100 µM
[50]
  GI50: 4.16 µM
  TGI: > 100 µM
[51]
  GI50: 4.79 µM
  TGI: > 100 µM
[52]
  GI50: 3.46 µM
  TGI: > 100 µM
[53]
  GI50: 43.3 µM
  TGI: > 100 µM
[54]
  GI50: 6.86 µM
  TGI: > 100 µM
[55]
  GI50: 5.42 µM
  TGI: > 100 µM

## CCOC(=O)/C(=C/N1CCN(C(=O)c2ccco2)C1=S)C(=O)c1ccccc1
[1]
  GI50: 12.9 µM
  TGI: 45.2 µM
[3]
  GI50: 11.6 µM
  TGI: 36.3 µM
[4]
  GI50: 8.48 µM
  TGI: 17.6 µM
[5]
  GI50: 8.96 µM
  TGI: 25 µM
[6]
  GI50: 15.9 µM
  TGI: > 50 µM
[7]
  GI50: 15.6 µM
  TGI: > 50 µM
[8]
  GI50: 19.2 µM
  TGI: > 50 µM
[9]
  GI50: 8.04 µM
  TGI: 24.1 µM
[56]
  GI50: 9.53 µM
  TGI: 23.7 µM
[11]
  GI50: 8.93 µM
  TGI: 23.7 µM
[12]
  GI50: 6.33 µM
  TGI: 18.5 µM
[13]
  GI50: 14.9 µM
  TGI: 31 µM
[14]
  GI50: 17.3 µM
  TGI: > 50 µM
[15]
  GI50: 23 µM
  TGI: > 50 µM
[17]
  GI50: 19.2 µM
  TGI: > 50 µM
[18]
  GI50: > 50 µM
  TGI: > 50 µM
[19]
  GI50: 15.7 µM
  TGI: > 50 µM
[20]
  GI50: 10.1 µM
  TGI: > 50 µM
[21]
  GI50: 6.48 µM
  TGI: 14.2 µM
[22]
  GI50: 8.86 µM
  TGI: 21 µM
[23]
  GI50: 13.3 µM
  TGI: 48.4 µM
[25]
  GI50: 10.8 µM
  TGI: 33.2 µM
[26]
  GI50: 14.4 µM
  TGI: > 50 µM
[27]
  GI50: 19.6 µM
  TGI: > 50 µM
[29]
  GI50: 7.7 µM
  TGI: 14.7 µM
[30]
  GI50: 4.87 µM
  TGI: 15.4 µM
[33]
  GI50: 20.2 µM
  TGI: > 50 µM
[34]
  GI50: 31 µM
  TGI: > 50 µM
[36]
  GI50: 11.7 µM
  TGI: 35.2 µM
[57]
  GI50: 19.4 µM
  TGI: > 50 µM
[37]
  GI50: 12.4 µM
  TGI: > 50 µM
[39]
  GI50: 7.18 µM
  TGI: 19.9 µM
[40]
  GI50: 16.4 µM
  TGI: > 50 µM
[42]
  GI50: 22.2 µM
  TGI: > 50 µM
[43]
  GI50: < 0.005 µM
  TGI: < 0.005 µM
[44]
  GI50: 20 µM
  TGI: > 50 µM
[45]
  GI50: 8.1 µM
  TGI: 17.4 µM
[46]
  GI50: 35.6 µM
  TGI: > 50 µM
[47]
  GI50: 46 µM
  TGI: > 50 µM
[48]
  GI50: 2.35 µM
  TGI: 16.4 µM
[49]
  GI50: 7.93 µM
  TGI: 24 µM
[50]
  GI50: 4.08 µM
  TGI: > 50 µM
[51]
  GI50: 12.4 µM
  TGI: 34 µM
[52]
  GI50: 11.5 µM
  TGI: > 50 µM
[54]
  GI50: 7.64 µM
  TGI: 17.5 µM
[55]
  GI50: 9.99 µM
  TGI: 19.3 µM
